Results as given in ChEMBL document CHEMBL5226367, “Synthesis, Optical Properties, and Antiproliferative Evaluation of NBD-Triterpene Fluorescent Probes” (J Nat Prod, 2023).
The source made the active and inactive calls. The rule behind the calls is not given here.

Columns and labels:
HepG2 [1] = assay: Cytotoxicity against human HepG2 cells assessed as decrease in cell density at IC50 concentration; format: functional, cell-based; details: time 30-1440 min, TDE = time-dependent effect
B16-F10 [2] = assay: Induction of apoptosis in mouse B16-F10 cells assessed as total apoptotic cells at IC50 concentration incubated for 72 hrs by Annexin V-FITC/PI staining based flow cytometric analysis relative to control; format: functional
[3] = Drug localization in cytoplasm of mouse B16-F10 cells assessed as green fluorescence at IC50 concentration incubated for 30 min to 24 hrs by DAPI staining based confocal microscopic analysis; format: ADME, subcellular; details: time 30-1440 min
[4] = Drug localization in cytoplasm of human HT-29 cells assessed as green fluorescence at IC50 concentration incubated for 30 min to 24 hrs by DAPI staining based confocal microscopic analysis; format: ADME, subcellular; details: time 30-1440 min
B16-F10 [5] = assay: Potency index, ratio of oleanolic acid IC50 to test compound IC50 for cytotoxicity against mouse B16-F10 cells assessed as reduction in cell viability incubated for 72 hrs by MTT assay; format: functional
B16-F10 [6] = assay: Potency index, ratio of maslinic acid IC50 to test compound IC50 for cytotoxicity against mouse B16-F10 cells assessed as reduction in cell viability incubated for 72 hrs by MTT assay; format: functional
HepG2 [7] = assay: Potency index, ratio of oleanolic acid IC50 to test compound IC50 for cytotoxicity against human HepG2 cells assessed as reduction in cell viability incubated for 72 hrs by MTT assay; format: functional
B16-F10 [8] = assay: Cytotoxicity against mouse B16-F10 cells assessed as decrease in cell density at IC50 concentration; format: functional, cell-based; details: time 30-1440 min, TDE = time-dependent effect
HT-29 [9] = assay: Induction of apoptosis in human HT-29 cells assessed as total apoptotic cells at IC50 concentration incubated for 72 hrs by Annexin V-FITC/PI staining based flow cytometric analysis relative to control; format: functional
HT-29 [10] = assay: Induction of apoptosis in human HT-29 cells at IC50 concentration incubated for 24 hrs by Annexin V-FITC/PI staining based flow cytometric analysis; format: functional, cell-based
HepG2 [11] = assay: Potency index, ratio of maslinic acid IC50 to test compound IC50 for cytotoxicity against human HepG2 cells assessed as reduction in cell viability incubated for 72 hrs by MTT assay; format: functional
HT-29 [12] = assay: Potency index, ratio of maslinic acid IC50 to test compound IC50 for cytotoxicity against human HT-29 cells assessed as reduction in cell viability incubated for 72 hrs by MTT assay; format: functional
HepG2 [13] = assay: Induction of apoptosis in human HepG2 cells assessed as total apoptotic cells at IC50 concentration incubated for 72 hrs by Annexin V-FITC/PI staining based flow cytometric analysis relative to control; format: functional
[14] = Drug localization in cytoplasm of human HepG2 cells assessed as green fluorescence at IC50 concentration incubated for 30 min to 24 hrs by DAPI staining based confocal microscopic analysis; format: ADME, subcellular; details: time 30-1440 min
HT-29 [15] = assay: Potency index, ratio of oleanolic acid IC50 to test compound IC50 for cytotoxicity against human HT-29 cells assessed as reduction in cell viability incubated for 72 hrs by MTT assay; format: functional
HT-29 [16] = assay: Cytotoxicity against human HT-29 cells assessed as decrease in cell density at IC50 concentration; format: functional, cell-based; details: time 30-1440 min, TDE = time-dependent effect
HepG2 [17] = assay: Induction of apoptosis in human HepG2 cells at IC50 concentration incubated for 24 hrs by Annexin V-FITC/PI staining based flow cytometric analysis; format: functional, cell-based
B16-F10 [18] = assay: Induction of apoptosis in mouse B16-F10 cells at IC50 concentration incubated for 24 hrs by Annexin V-FITC/PI staining based flow cytometric analysis; format: functional, cell-based

Row | Drug uptake [3] | Drug uptake [4] | Drug uptake [14] | Structure (SMILES) | Activity (HepG2 [1]) | Activity (B16-F10 [2]) [%] | Ratio IC50 (B16-F10 [5]) | Ratio IC50 (B16-F10 [6]) | Ratio IC50 (HepG2 [7]) | Activity (B16-F10 [8]) | Activity (HT-29 [9]) [%] | Activity (HT-29 [10]) | Ratio IC50 (HepG2 [11]) | Ratio IC50 (HT-29 [12]) | Activity (HepG2 [13]) [%] | Ratio IC50 (HT-29 [15]) | Activity (HT-29 [16]) | Activity (HepG2 [17]) | Activity (B16-F10 [18])
1 | Active | Active | Active | CC1(C)CC[C@]2(C(=O)O)CC[C@]3(C)C(=CC[C@@H]4[C@@]5(C)CC[C@H](OC(=O)CCCCCNc6ccc([N+](=O)[O-])c7nonc67)C(C)(C)[C@@H]5CC[C@]43C)[C@@H]2C1 | Tde | 31 | 44 | 15 | 17 | Tde | 31 | Active | 7.9 | 1.7 | 31 | 22 | Tde | Active | Active
2 | Active | Active | Active | CC1(C)CC[C@]2(C(=O)O)CC[C@]3(C)C(=CC[C@@H]4[C@@]5(C)C[C@@H](OC(=O)CCCCCNc6ccc([N+](=O)[O-])c7nonc67)[C@H](O)C(C)(C)[C@@H]5CC[C@]43C)[C@@H]2C1 | Tde |  | 22 | 7.4 | 15 | Tde |  | Active | 7.1 | 5 |  | 65 | Tde | Active | Active
